Results taken from patent publication US4956367A, “2-amino-4-morpholino-6-propyl-1,3,5-triazines” (U C B S.A., priority 1988, dated 1990).

Key:
Toxicity (Irwin's test) = assay type: in vivo
Procedure: Progressive doses of the compound to be tested are administered intraperitoneally to groups of three mice until the lethal dose is reached (dose which causes the death of two animals out of three within 48 hours).

[1] = system: effects of scopolamine on the band from 6.4 to 9.6 Hz in the EEG; experiment: Inhibition of the effects of scopolamine on the electroencephalogram (EEG); assay type: in vivo, male albino Sprague-Dawley rats; design: inhibition: dose or concentration left out as unconfirmed; conditions: Rattus norvegicus, ip; read-out: Inhibition (percentage of reduction in the increase in the intensity of the band from 6.4 to 9.6 Hz)
Procedure: Male albino Sprague-Dawley SPF rats (160 to 200 g) are used in this test. When the animals are 3 months old, 5 cortical electrodes are implanted permanently, aseptically and under a general anesthesia: one inert electrode, one left and one right frontal electrode, and one left and one right occipital electrode (P. ETEVENON, loc.cit.). The test is carried out when the animals are about 15 months old. In the meantime, the animals are kept in individual cages. They are given water and food ad libitum and are subjected to a regular daily cycle comprising a period of darkness between 6 o'clock in the evening and 6 o'clock in the morning. At the same time, the animals are progressively acclimatized to the cages of the sound-proof cabin which they will subsequently occupy for recording of the electroencephalograms, as well as to the experimental conditions, by intraperitoneal administration of placebo. The products are administered immediately before the EEG is recorded. The rats are divided into groups of 8 animals and 16 samples of the EEG spectra are recorded over 5 seconds (two EEG spectra per animal). The spectra obtained are then analyzed by computer (rapid Fourier transform), which enables the average of the 16 measurements performed to be determined for each group and the overall intensity of the EEG spectrum and the distribution of this intensity (in %) in the various frequency bands to be deduced for each animal. This operation (recording of the spectra) is repeated 9 times (total

SMILES | Lethal dose (death of two animals out of three within 48 hours) (Toxicity (Irwin's test); mice, intraperitoneal) | inhibition [1] | Lethal dose (death of two animals out of three within 48 hours) (Toxicity (Irwin's test); mouse, in vivo, ip)
CCCc1nc(NC(C)=O)nc(N2CCOCC2)n1 | 905 mg/kg |  | 
CCCc1nc(N2CCOCC2)nc(N(C)C(C)=O)n1 | 947 mg/kg |  | 
CCCc1nc(NCCO)nc(N2CCOCC2)n1 [Compound 1, 2-[(4-morpholino-6-propyl-1,3,5-triazin-2-yl)amino]-ethanol] | 802 mg/kg | 52% | 
CCCc1nc(NO)nc(N2CCOCC2)n1 [Compound 2, 2-(hydroxyamino)-4-morpholino-6-propyl-1,3,5-triazine] | 718 mg/kg |  | 
CCCc1nc(NCCCO)nc(N2CCOCC2)n1 [Compound 3] | 844 mg/kg |  | 
CCCc1nc(NCCCCO)nc(N2CCOCC2)n1 [Compound 4] | 886 mg/kg |  | 
CCCc1nc(NCC(C)O)nc(N2CCOCC2)n1 (centres unmarked) [Compound 5] | 563 mg/kg |  | 
CCCc1nc(NCC(O)CC)nc(N2CCOCC2)n1 (centres unmarked) [Compound 6] | 886 mg/kg |  | 
CCCc1nc(NC(CC)CO)nc(N2CCOCC2)n1 (centres unmarked) [Compound 7] |  | 50% | 886 mg/kg
CCCc1nc(NC(C)(C)CO)nc(N2CCOCC2)n1 [Compound 8] | 886 mg/kg |  | 
CCCc1nc(N(C)CCO)nc(N2CCOCC2)n1 [Compound 9] |  | 53.3% | 844 mg/kg
CCCc1nc(NCCOC)nc(N2CCOCC2)n1 [Compound 10, 2-[(2-methoxyethyl)amino]-4-morpholino-6-propyl-1,3,5-triazine] | 844 mg/kg |  | 
CCCc1nc(NCC(O)CO)nc(N2CCOCC2)n1 (centres unmarked) [Compound 11] | 892 mg/kg |  | 
CCCc1nc(NC(CO)(CO)CO)nc(N2CCOCC2)n1 [Compound 12] | 982 mg/kg |  | 
CCCc1nc(NC(C)(CO)CO)nc(N2CCOCC2)n1 [Compound 13] | 934 mg/kg |  | 
CCCc1nc(N2CCOCC2)nc(N(CCO)Cc2ccccc2)n1 [Compound 14] | > 1073 mg/kg |  | 
CCCc1nc(NC(CO)C(O)c2ccccc2)nc(N2CCOCC2)n1 (centres unmarked) [Compound 15] | 1121 mg/kg |  | 
CCCc1nc(NC[C@H](C)O)nc(N2CCOCC2)n1 [Compound 16, (S)-3-[(4-morpholino-6-propyl-1,3,5-triazin-2-yl)amino]-2-propanol] | 844 mg/kg |  | 
CCCc1nc(NC[C@@H](C)O)nc(N2CCOCC2)n1 [Compound 17] | 844 mg/kg |  | 
CCCc1nc(NCC2(O)CCCCC2)nc(N2CCOCC2)n1 [Compound 18] | 1007 mg/kg |  | 
CCCc1nc(N2CCOCC2)nc(N2CCCC2CO)n1 (centres unmarked) [Compound 19] | 1031 mg/kg |  | 
CCCc1nc(NN(C)C)nc(N2CCOCC2)n1 [Compound 20, 2-(2,2-dimethylhydrazino)-4-morpholino-6-propyl-1,3,5-triazine] | 799 mg/kg | 66.7% | 
CCCc1nc(NC(C)=O)nc(N2CCOCC2)n1 [Compound 21a, N-(4-Morpholino-6-propyl-1,3,5-triazin-2-yl)-acetamide] | 996 mg/kg | 100% | 

SMILES | Lethal dose (death of two animals out of three within 48 hours) (Toxicity (Irwin's test); mice, intraperitoneal) | inhibition [1] | Lethal dose (death of two animals out of three within 48 hours) (Toxicity (Irwin's test); mouse, in vivo, ip)
CCCc1nc(NC(=O)c2ccccc2)nc(N2CCOCC2)n1.Cl [Compound 22, N-(4-morpholino-6-propyl-1,3,5-triazin-2-yl)-benzamide hydrochloride] | 1091 mg/kg | 66.7% | 
CCCc1nc(NC(=O)Cc2ccccc2)nc(N2CCOCC2)n1 [Compound 23] | > 1024 mg/kg |  | 
CCCc1nc(NC(=O)C(C)C)nc(N2CCOCC2)n1 [Compound 24] | 880 mg/kg |  | 
CCCc1nc(N2CCOCC2)nc(N(C)C(C)=O)n1 [Compound 25a] |  | 46.7% | 838 mg/kg
CCCc1nc(N2CCOCC2)nc(N(C)C(=O)C(C)C)n1 [Compound 26] |  | 55.6% | 922 mg/kg
CCCc1nc(N2CCOCC2)nc(N(C)C(=O)c2ccccc2)n1.Cl [Compound 27, N-methyl-N-(4-morpholino-6-propyl-1,3,5-triazin-2-yl)-benzamide hydrochloride] | 1133 mg/kg | 93.8% | 
CCCc1nc(NC(=O)Oc2ccccc2)nc(N2CCOCC2)n1 [Compound 28, phenyl (4-morpholino-6-propyl-1,3,5-triazin-2-yl)carbamate] | > 1030 mg/kg |  | 
CCCc1nc(NC(=O)c2ccc(Cl)cc2)nc(N2CCOCC2)n1 [Compound 29] | 398 mg/kg |  | 
CCCc1nc(N2CCOCC2)nc(N(C)C(=O)c2ccc(Cl)cc2)n1 [Compound 30] | 1125 mg/kg |  | 
CCCc1nc(NC(=O)c2ccc(OC)cc2)nc(N2CCOCC2)n1 [Compound 31] | 511 mg/kg |  | 
CCCc1nc(N2CCOCC2)nc(N(C)C(=O)c2ccc(OC)cc2)n1 [Compound 32] | 1222 mg/kg |  | 
CCCc1nc(NC(=O)c2ccc(C)cc2)nc(N2CCOCC2)n1 [Compound 33] | 1132 mg/kg |  | 
CCCc1nc(N2CCOCC2)nc(N(C)C(=O)c2ccc(C)cc2)n1 [Compound 34] | 1174 mg/kg |  | 
CCCc1nc(N2CCOCC2)nc(N(C)C(=O)c2ccc(OC)c(OC)c2)n1 [Compound 35] | 401 mg/kg |  | 
CCCc1nc(NC(=O)c2ccc(C)c(C)c2)nc(N2CCOCC2)n1 [Compound 36] | 1174 mg/kg |  | 
CCCc1nc(NCCOC(C)=O)nc(N2CCOCC2)n1 [Compound 37, 2-[[2-(acetoxy)ethyl]amino]-4-morpholino-6-propyl-1,3,5-triazine] | 928 mg/kg | 53.3% | 
CCCc1nc(NCCOC(=O)C(C)C)nc(N2CCOCC2)n1 [Compound 38] | > 1012 mg/kg |  | 
CCCc1nc(NCCOC(=O)c2ccccc2)nc(N2CCOCC2)n1 [Compound 39] | > 1114 mg/kg |  | 
CCCc1nc(NCCOC(=O)Cc2ccccc2)nc(N2CCOCC2)n1 [Compound 40] | 1157 mg/kg |  | 
CCCc1nc(NC(=O)N(C)C)nc(N2CCOCC2)n1 [Compound 41, N,N-Dimethyl-N'-(4-morpholino-6-propyl-1,3.5-triazin-2-yl)-urea] | 294 mg/kg |  | 
CCCc1nc(NCCOC(N)=O)nc(N2CCOCC2)n1 [Compound 42, 2-[[2-[(Aminocarbonyl)oxy]ethyl]amino]-4-morpholino-6-propyl-1,3,5-triazine] | > 931 mg/kg |  | 
CCCc1nc(N2CCOCC2)nc(N(CCOC(C)=O)C(C)=O)n1 [Compound 43, N-[2-(Acetoxy)ethyl]-N-(4-morpholino-6-propyl-1,3,5-triazin-2-yl)-acetamide] | 351 mg/kg | 77.8% | 
